Test results published in patent publication US20260102460A1, “NOVEL COMBINATIONS OF ANTIBIOTICS AND NON-ANTIBIOTIC DRUGS EFFECTIVE IN VIVO AGAINST GRAM-POSITIVE BACTERIA, IN PARTICULAR METHICILLIN-RESISTANT S. AUREUS (MRSA)” (EUROPEAN MOLECULAR BIOLOGY LABORATORY, priority 2022, published 2026).
Entries after “also recorded” stand apart in the source; their conditions may differ.

Legend:
S. aureus DSM 20231 = experiment: Adjuvant (extended non-antibiotic) combination screen; assay type: cell-based, Staphylococcus aureus; settings: S. aureus DSM 20231; original and extended non-antibiotic screen (FIG. 4d); 4×4 dose matrix
Description: (§1) MICs were tested in all strains for the main screen. Drugs were two-fold serially diluted in 11 concentrations, and 32 no-drug control wells were included in each plate. Experiments were conducted in 384-well plates (ref. 781271 by Greiner BioOne), with a total volume of 30 μl for S. aureus and B. subtilis and 55 μl for S. pneumoniae. Volumes were optimized for each strain to achieve good dynamic range for growth and minimize risk of cross-contamination between wells. Plates were inoculated with a starting optical density at 595 nm (OD595 nm) of 0.01 from an overnight culture. All liquid handling was performed using a Biomek FX liquid handler (Beckman Coulter). Plates were sealed with breathable membranes and incubated at 37° C. OD595 nm was measured every 30 minutes for 14 hours. The MIC was considered as the first concentration at which growth was inhibited. Experiments were conducted in biological duplicates. For the adjuvant screen, antibiotics were tested in S. aureus DSM 20231 at the same concentrations as for the main screen. Non-antibiotics concentrations were selected to fall within therapeutic ranges.
(§2) 62 drugs, hereafter designated as recipients, were arrayed in 384-well plates (ref. 781271 by Greiner BioOne) in three two-fold serial dilutions and two technical replicates. Concentrations were selected according to MICs, with the highest concentration corresponding to the MIC, and the intermediate and lowest concentration corresponding to ½ and ¼ MIC, respectively. Plates were kept frozen and defrosted upon each experimental run, when the same 62 drugs and in the same three concentrations were added as donor drugs (one drug at one concentration for each recipient plate). A few drugs were screened only as donors: the combinations co-amoxiclav and cotrimoxazole in B. subtilis and S. aureus DSM 20231; co-amoxiclav, clavulanic acid, pseudomonic acid and cefuroxime in S. aureus Newman. All donor drugs were tested in two biological replicates. Control wells were included in each plate (six no-drug wells, three plain medium wells and three wells containing only the donor drug). After the addition of donor drugs, plates were inoculated with cells. Handling, inoculation, growth conditions, plate incubation and OD595 nm measurements were performed as for the MIC determination.
For the adjuvant screen, 44 non-antibiotic drugs were tested against the same recipient drugs of the main screen for S. aureus DSM 20231.
The inventors selected 44 drugs to include pharmaceuticals that can be co-administered with antibiotics in S. aureus infections or non-antibiotics with previously reported antibacterial activity against S. aureus. […] Interactions were scored and benchmarked as for the main screen (Methods).

S. aureus (two strains) = experiment: High-throughput screen of drug combinations (4×4 broth microdilution checkerboard, Bliss scores); assay type: cell-based, Staphylococcus aureus; settings: for drug-drug interaction (synergy / antagonism, Bliss model): S. aureus Newman and DSM 20231, fitness from OD595nm at 8 h, synergy = first quartile of Bliss scores <−0.1, antagonism = third quartile >0.1, FDR <0.05
Description: as §1, §2

[1] = test system: multi-drug resistant E. coli isolates; settings: vanillin paired with spectinomycin; Gram-negative pathogenic and multi-drug resistant E. coli isolates; cited from earlier work
[2] = test system: S. aureus Newman dltABCD and tagG IPTG-inducible knockdown mutants; experiment: Gentamicin and nisin MIC in dltABCD and tagG knockdown mutants; assay type: cell-based, Staphylococcus aureus; settings: dltABCD operon and tagG knockdown, 500 μM IPTG, versus control strain MM76
From the text: A two-plasmid CRISPR interference system was used to knock down gene expression of selected genes in S. aureus Newman. In these strains, dcas is expressed from an IPTG-inducible promoter on plasmid pLOW, while sgRNAs are expressed from a constitute promoter on a plasmid derived from pCG248. The sgRNA-target sequences were […] (SEQ ID NO. 1) for dltABCD and […] (SEQ ID NO. 2) for tagG, and […] (SEQ ID NO. 3) for the non-target control MM76.
For gentamicin and nisin MIC measurements, dltABCD and tagG IPTG-inducible knockdown mutants (Methods) were grown in two-fold dilutions of nisin and gentamicin, in presence of erythromycin (5 μg/ml) and chloramphenicol (10 μg/ml) for plasmid maintenance. IPTG (500 μM) was used to achieve maximal knockdown of the gene targeted. The parent S. aureus Newman and the control strain MM76 (Methods) were included in all experiments, and experiments were conducted in four biological replicates, in 384-well plates (ref. 781271 by Greiner BioOne). For each plate, the inventors identified the time point where the control strain MM76 (in presence of erythromycin, chloramphenicol and IPTG at the above-mentioned concentrations) reached plateau, defined as the first time point before no increase was detected in log 10 (OD595 nm) values of two consecutive time points. […]

MDR S. aureus isolates = settings: Mueller-Hinton broth (MHB), 22 h; cited from earlier work

CC(=O)Oc1ccccc1C(=O)O [acetylsalicylic acid]
interactions between non-antibiotic drug and antibiotics (synergy / antagonism, Bliss model) (S. aureus DSM 20231): synergy with cefuroxime; also recorded: antagonisms with ciprofloxacin, oxacillin and azithromycin

O=C(O)[C@H]1/C(=C/CO)O[C@@H]2CC(=O)N21 [clavulanic acid]
drug-drug interaction (synergy / antagonism, Bliss model) (S. aureus (two strains)): a number of synergies with other drugs

CCN(CC)CCOc1ccc(C(=C(Cl)c2ccccc2)c2ccccc2)cc1 [clomifene]
interactions between non-antibiotic drug and antibiotics (synergy / antagonism, Bliss model) (S. aureus DSM 20231): synergies with cell-wall acting drugs; also recorded: antagonism with streptomycin

C[C@@H]1O[C@@H]1P(=O)(O)O [fosfomycin]
drug-drug interaction (synergy / antagonism, Bliss model) (S. aureus (two strains)): strongly synergized with a diverse range of protein-synthesis inhibitors (lincosamides, oxazolidinones, streptomycin); also recorded: synergized with almost all classes of translation inhibitors, including macrolides, tetracyclines and spectinomycin

CN(C)C(=O)C(CCN1CCC(O)(c2ccc(Cl)cc2)CC1)(c1ccccc1)c1ccccc1 [loperamide]
drug-drug interaction (synergy / antagonism, Bliss model) (S. aureus (two strains)): broad antagonism with macrolides | rank by number of interactions with antibiotics (S. aureus (two strains); the inventors' screen): highest number of interactions with antibiotics

COc1cc(Cc2cnc(N)nc2N)cc(OC)c1OC [trimethoprim]
drug-drug interaction (synergy / antagonism, Bliss model) (S. aureus (two strains)): a number of synergies with other drugs

COc1cc(C=O)ccc1O [vanillin]
inhibitory effect on growth [1]: surprisingly strong inhibitory effect on the growth

gentamicin
change of MIC in CRISPRi knockdown mutants [2]: decrease

nisin
change of MIC in CRISPRi knockdown mutants [2]: decrease

teicoplanin
killing by single drug (MDR S. aureus isolates): complete killing
